Laboratory results published in US6933290B2, “2-{N-(2-amino-3-(heteroaryl or aryl)propionyl)-aminoacyl}-amino}-alkylboronic acid derivatives” (Novartis AG, priority 2001, dated 2005).
Where “and” joins values, the source holds several entries; their conditions need not be identical. Equal entries are not always repeated.

Molecular target: T1, chymotrypsin-like activity of the 20S proteasome (Homo sapiens, UniProt P20618+P28074)
T1 construct: purified human placenta 20S proteasome; tissue Diabetes Forschungsinstitut, Düsseldorf, Germany; host or cells: human placenta
Experiment: Inhibition of the chymotrypsin-like activity of the 20S proteasome (Suc-LLVY-AMC hydrolysis)
Format: biochemical
Conditions: purified human placenta 20S proteasome, Suc-LLVY-AMC substrate, read-out: IC50 [μM] (results of one or two experiments)
From the text: It is based on the hydrolysis of the fluorogenic peptide Suc-LLVY-AMC (Succinyl-leucine-leucine-vatine-tyrosine-7-amino-4-methyl-coumarin), which is cleaved exclusively at the Y-AMC bond by the 20S proteasome. Hydrolysis of this peptide is accompanied by an increase in fluorescence intensity (λex (excitation wavelength): 355 nm; μem (emission wavelength): 460 nm) due to release of the […] that accompanies diffusion apart of the hydrolysis product Suc-LLVY.
2 μl of a 1 mM solution of a test compound in DMSO (dimethylsulfoxide, 20 μM final concentration in the well) are preincubated for 60 min at room temperature in black 96-well microtiter plates together with a mixture of 1 μl purified human placenta 20S proteasome (Diabetes Forschungsinstitut, DÜsseldorf, Germany; about 100 ng proteasome, depending on the proteasome preparation) and 47 μl buffer-Ca (5 mM CaCl2, 20 mM Tris/HCl (Tris-(hydroxymethyl)-amino-methane hydrochloride) pH 8.0). 3 μl of a 2.67 mM solution of Suc-LLVY-AMC (Bachem, Switzerland) in DMSO (80 μM final concentration in the well) and 47 μl buffer-Ca are mixed and added. The resulting mixture is incubated for 3-24 h at 37° C. If desired, proteolysis of the substrate can be stopped by addition of 50 μl stop solution (100 mM monochloroacetic acid, 130 mM NaOH, 100 mM acetic acid, pH=4.3). The fluorescence is monitored with a FLUOROSKAN ASCENT™ microtiter plate reader.
For each measurement series two control experiments are carried out: • 1.) 0% value: 2 μl DMSO are used in the above described assay instead of 2 μl of a 1 mM solution of a test compound in DMSO and 48 μl buffer-Ca instead of a mixture of 47 μl buffer-Ca and 1 μl purified proteasome. • 2.) 100% value: in the above described assay 2 μl DMSO are used instead of 2 μl of a 1 mM solution of the test compound in DMSO. Calculation [formula]
The IC50 value is defined as that concentration of a compound at which the remaining activity is 50% compared to the […].

| Compound | IC50 |
| --- | --- |
| (R)-1-{(S)-2-[(S)-2-(Biphenyl-3-ylamino)-3-(3,4,5-trimethoxy-phenyl)-propionylamino]-4-methyl-pentanoylamino}-3-methyl-butylboronic acid [Example 34] | 0.0013 µM |
| COc1ccc(C[C@H](NC(=O)Cc2cccc(Oc3ccccc3)c2)C(=O)N[C@H](C(=O)N[C@@H](CC(C)C)B2O[C@@H]3C[C@@H]4C[C@@H](C4(C)C)[C@]3(C)O2)C(C)C)cc1OC [Example 25, (S)-2-{(S)-3-(3,4-Dimethoxy-phenyl)-2-[2-(3-phenoxy-phenyl)-acetylamino]-propionylamino}-3-methyl-N-[(R)-3-methyl-1-((1S,2S,6R,8S)-2,9,9-trimethyl-3,5-dioxa-4-bora-tricyclo[6.1.1.0^2,6]dec-4-yl)-butyl]-butyramide] | 0.0008 µM |
| COc1ccc(C[C@H](Nc2cccc(-c3ccccc3)c2)C(=O)N[C@@H](C)C(=O)N[C@@H](CC(C)C)B2O[C@@H]3C[C@@H]4C[C@@H](C4(C)C)[C@]3(C)O2)cc1 [Example 41, (S)-2-(Biphenyl-3-ylamino)-3-(4-methoxy-phenyl)-N-{(S)-1-[(R)-3-methyl-1-((1S,2S,6R,8S)-2,9,9-trimethyl-3,5-dioxa-4-bora-tricyclo[6.1.1.0^2,6]dec-4-yl)-butylcarbamoyl]-ethyl}-propionamide] | 0.0012 µM |
| (R)-1-{(S)-2-[(S)-2-(3-Isopropyl-phenylamino)-3-(3,4,5-trimethoxy-phenyl)-propionylamino]-propionylamino}-3-methyl-butylboronic acid [Example 46] | 0.0019 µM |
| COc1cc(C[C@H](Nc2cccc(C(C)C)c2)C(=O)N[C@@H](C)C(=O)N[C@@H](CC(C)C)B2O[C@@H]3C[C@@H]4C[C@@H](C4(C)C)[C@]3(C)O2)cc(OC)c1OC [Example 45, (S)-2-(3-Isopropyl-phenylamino)-N-{(S)-1-[(R)-3-methyl-1-((1S,2S,6R,8S)-2,9,9-trimethyl-3,5-dioxa-4-bora-tricyclo[6.1.1.0^2,6]dec-4-yl)-butylcarbamoyl]-ethyl}-3-(3,4,5-trimethoxy-phenyl)-propionamide] | 0.0013 µM |
| COc1ccc(C[C@H](Nc2cccc(-c3ccccc3)c2)C(=O)N[C@H](C(=O)N[C@@H](CC(C)C)B2O[C@@H]3C[C@@H]4C[C@@H](C4(C)C)[C@]3(C)O2)C(C)C)cc1 [Example 7, (S)-2-[(S)-2-(Biphenyl-3-ylamino)-3-(4-methoxy-phenyl)-propionylamino]-3-methyl-N-[(R)-3-methyl-1-((1S,2S,6R,8S)-2,9,9-trimethyl-3,5-dioxa-4-bora-tricyclo[6.1.1.0^2,6]dec-4-yl)-butyl]-butyramide] | 0.0029 µM and 0.0032 µM |
| COc1cc(C[C@@H](Nc2cccc(-c3ccccc3)c2)C(=O)N[C@H](C(=O)N[C@@H](CC(C)C)B2O[C@@H]3C[C@@H]4C[C@@H](C4(C)C)[C@]3(C)O2)C(C)C)cc(OC)c1OC [Example 21, (S)-2-[(R)-2-(Biphenyl-3-ylamino)-3-(3,4,5-trimethoxy-phenyl)-propionylamino]-3-methyl-N-[(R)-3-methyl-1-((1S,2S,6R,8S)-2,9,9-trimethyl-3,5-dioxa-4-bora-tricyclo[6.1.1.0^2]dec-4-yl)-butyl]-butyramide] | 0.0015 µM |
| COc1ccc(C[C@H](NC(=O)CCc2ccccc2)C(=O)N[C@H](C(=O)N[C@@H](CC(C)C)B2O[C@@H]3C[C@@H]4C[C@@H](C4(C)C)[C@]3(C)O2)C(C)C)c(OC)c1OC [Example 5, (S)-3-Methyl-N-[(R)-3-methyl-1-((1S,2S,6R,8S)-2,9,9-trimethyl-3,5-dioxa-4-bora-tricyclo[6.1.1.0^2,6]dec-4-yl)-butyl]-2-[(S)-2-(3-phenyl-propionyl-amino)-3-(2,3,4-trimethoxyphenyl)-propionylamino]-butyramide] | 0.0013 µM and 0.0006 µM |
| COc1cc(C[C@H](Nc2cccc(C(C)C)c2)C(=O)N[C@H](C(=O)N[C@@H](CC(C)C)B2O[C@@H]3C[C@@H]4C[C@@H](C4(C)C)[C@]3(C)O2)C(C)C)cc(OC)c1OC [Example 11, (S)-2-[(S)-2-(3-Isopropyl-phenylamino)-3-(3,4,5-trimethoxy-phenyl)-propionylamino]-3-methyl-N-[(R)-3-methyl-1-((1S,2S,6R,8S)-2,9,9-trimethyl-3,5-dioxa-4-bora-tricyclo[6.1.1.0^2,6]dec-4-yl)-butyl]-butyramide] | 0.0039 µM |

The remaining lines, values ahead:

| IC50 | Compound |
| --- | --- |
| 0.0008 µM | COc1cc(C[C@H](NC(=O)Cc2cccc(Oc3ccccc3)c2)C(=O)N[C@H](C(=O)N[C@@H](CC(C)C)B(O)O)C(C)C)cc(OC)c1OC [Example 28, (R)-3-Methyl-1-{(S)-3-methyl-2-[(S)-2-[2-(3-phenoxy-phenyl)-acetylamino]-3-(3,4,5-trimethoxy-phenyl)-propionylamino]-butyrylamino}-butylboronic acid] |
| 0.0003 µM | COc1cc(C[C@H](NC(=O)Cc2cccc(Oc3ccccc3)c2)C(=O)N[C@H](C(=O)N[C@@H](CC(C)C)B2O[C@@H]3C[C@@H]4C[C@@H](C4(C)C)[C@]3(C)O2)C(C)C)cc(OC)c1OC [Example 27, (S)-3-Methyl-N-[(R)-3-methyl-1-((1S,2S,6R,8S)-2,9,9-trimethyl-3,5-dioxa-4-bora-tricyclo[6.1.1.0^2,6]dec-4-yl)-butyl]-2-[(S)-2-[2-(3-phenoxy-phenyl)-acetylamino]-3-(3,4,5-trimethoxy-phenyl)-propionylamino]-butyramide] |
| 0.0023 µM | COc1cc(C[C@H](Nc2cccc(-c3ccccc3)c2)C(=O)N[C@H](C(=O)N[C@@H](Cc2ccccc2)B(O)O)C(C)C)cc(OC)c1OC [Example 50, (R)-1-{(S)-2-[(S)-2-(Biphenyl-3-ylamino)-3-(3,4,5-trimethoxy-phenyl)-propionylamino]-3-methyl-butyrylamino}-2-phenyl-ethylboronic acid] |
| 0.0037 µM | COc1cc(C[C@H](Nc2cccc(-c3ccccc3)c2)C(=O)N[C@@H](CC(C)C)C(=O)N[C@@H](CC(C)C)B(O)O)cc(OC)c1OC [Example 32, (R)-1-{(S)-2-[(S)-2-(Biphenyl-3-ylamino)-3-(3,4,5-trimethoxy-phenyl)-propionylamino]-4-methyl-pentanoylamino}-3-methyl-butylboronic acid] |
| 0.005 µM | COc1ccc(C[C@H](Nc2cccc(-c3ccccc3)c2)C(=O)N[C@H](C(=O)N[C@@H](Cc2ccccc2)B(O)O)C(C)C)cc1 [Example 52, (R)-1-{(S)-2-[(S)-2-(Biphenyl-3-ylamino)-3-(4-methoxy-phenyl)-propionylamino]-3-methyl-butyrylamino}-2-phenyl-ethylboronic acid] |
| 0.0038 µM | COc1cc(C[C@H](Nc2cccc(C(C)C)c2)C(=O)N[C@H](C(=O)N[C@@H](CC(C)C)B(O)O)C(C)C)cc(OC)c1OC [Example 12, (R)-1-{(S)-2-[(S)-2-(3-Isopropyl-phenylamino)-3-(3,4,5-trimethoxy-phenyl)-propionylamino]-3-methyl-butyrylamino}-3-methyl-butylboronic acid] |
| 0.0021 µM | COc1cc(C[C@H](Nc2cccc(-c3ccccc3)c2)C(=O)N[C@H](C(=O)NC(CC(C)C)B(O)O)C(C)C)cc(OC)c1OC (stereo partly drawn) [Example 24, 1-{(S)-2-[(S)-2-(Biphenyl-3-ylamino)-3-(3,4,5-trimethoxy-phenyl)-propionylamino]-3-methyl-butyrylamino}-3-methyl-butylboronic acid] |
| 0.001 µM | COc1ccc(C[C@H](Nc2cccc(-c3ccccc3)c2)C(=O)N[C@@H](C)C(=O)N[C@@H](CC(C)C)B(O)O)cc1OC [Example 44, (R)-1-{(S)-2-[(S)-2-(Biphenyl-3-ylamino)-3-(3,4-dimethoxy-phenyl)-propionylamino]-propionylamino}-3-methyl-butylboronic acid] |
| 0.0019 µM and 0.0015 µM | COc1ccc(C[C@H](NC(=O)Cc2cccc(Oc3ccccc3)c2)C(=O)N[C@H](C(=O)N[C@@H](CC(C)C)B(O)O)C(C)C)c(OC)c1OC [Example 4] |
| 0.0023 µM | COc1ccc(C[C@H](Nc2cccc(-c3ccccc3)c2)C(=O)N[C@@H](CC(C)C)C(=O)N[C@@H](CC(C)C)B(O)O)cc1 [Example 36, (R)-1-{(S)-2-[(S)-2-(Biphenyl-3-ylamino)-3-(4-methoxy-phenyl)-propionylamino]-4-methyl-pentanoylamino}-3-methyl-butylboronic acid] |
| 0.0019 µM | COc1ccc(C[C@H](Nc2cccc(-c3ccccc3)c2)C(=O)N[C@@H](C)C(=O)N[C@@H](CC(C)C)B(O)O)cc1 [Example 42, (R)-1-{(S)-2-[(S)-2-(Biphenyl-3-ylamino)-3-(4-methoxy-phenyl)-propionylamino]-propionylamino}-3-methyl-butylboronic acid] |
